Values quoted from earlier work in patent publication US20060233842A1, “Microemulsion composition for oral administration of biphenyldimethyldicarboxylate” (priority 2002, published 2006).
Like-named read-outs stand apart in the source and are kept apart here.

| SMILES | LD50 for acute oral toxicity (Gattefosse product profile) | LD50 for acute oral toxicity |
| --- | --- | --- |
| CCOCCOCCO [transcutol, diethyleneglycol monoethylether] | 7.95 ml (specific gravity, 0.989)/kg |  |
| CC(=O)OCC(COC(C)=O)OC(C)=O [triacetine] |  | 1.1 g/kg |
